The test system of one series is Walker 256 sarcomas. In words: In vivo tumor localization in rats with intramuscular Walker 256 sarcomas (Example 8). On the set-up: species or system Sprague-Dawley rats. The following applies: intravenous injection. On the procedure: 12-(m-Iodophenyl)dodecyl phosphocholine (compound 50) was administered by intravenous injection to Sprague-Dawley rats with intramuscular Walker 256 sarcomas and athymic nude mice with subcutaneous human tumors, specifically, human HTB 77 ovarian adenocarcinoma, NCI 69 human small cell carcinoma, and human HTB 63 melanoma.

In series [1] the test system is human HTB 77 ovarian adenocarcinoma, NCI 69 human small cell carcinoma, and human HTB 63 melanoma. Briefly: In vivo tumor localization and scintigraphy in athymic nude mice with subcutaneous human tumors (Example 8).
The subject of a further series is human tumor models. Briefly: Tissue distribution in athymic mice human tumor models (FIG. 17). In kind it is in vivo, athymic nude mice. The following applies: 13 days post-administration, % dose/gram of tissue plotted (FIG. 17). On the procedure:
FIG. 17 is a bar graph showing tissue distribution in the blood, liver, and specified tumor tissue of radioiodinated 12-(m-iodophenyl)-dodecyl phosphocholine in nude mice 13 days post-administration; and
Tumor:blood levels greater than 25:1 were recorded in all athymic mice human tumor models.
FIG. 17 is a bar graph showing the tissue distribution in the blood, liver, and specified tumor tissue of compound 50 in nude mice 13 days post-administration. The data is expressed in terms of % dose/gram of tissue.

Series [2] deals with HTB 63 human melanoma tumors. Briefly: Tissue distribution in nude mice bearing HTB 63 human melanoma tumors (FIG. 18). In kind it is in vivo. Conditions: 13 days post-injection (FIG. 18). An excerpt:
FIG. 18 is a bar graph showing tissue distribution of radioiodinated 12-(m-iodophenyl)-dodecyl phosphocholine in nude mice bearing HTB 63 human melanoma tumors at 13 days post-injection.
FIG. 18 is a bar graph which vividly illustrates the relative difference in tissue concentration of compound 50 in nude mice bearing HTB 63 human melanoma tumors at 13 days post-injection. The tissue concentration in the tumor tissue is remarkable.

Structures are written as SMILES.

As for `C[N+](C)(C)CCOP(=O)([O-])OCCCCCCCCCCCCc1cccc(I)c1` [compound 50, 12-(m-iodophenyl)-dodecyl phosphocholine], the tumor localization entry (in the series with Walker 256 sarcomas; in series [1] (intravenous injection)) was “excellent tumor localization” in each case. For the same compound, the “clearance of background activity” value in series [1] (beyond five days post-injection) is “all background activity had cleared from the liver and gastrointestinal tract”. For the same compound, in the series with human tumor models, the “tissue distribution in blood, liver and specified tumor tissue” value is reported as “the tumor contained the largest amount of radioactivity”. Besides, in series [2], the “tissue concentration in the tumor tissue” value is “remarkable”.

Source of the values: US5795561A, “Radioiodinated phospholipid ether analogues” (The Board of Regents of the University of Michigan, priority 1994, dated 1998).
